In PubChem BioAssay AID256 (DTP/NCI, 2004):
“And” between values parts separate entries of the source, which are not always exact repeats. Equal entries are not always repeated. Inconclusive results and toxic doses are left out. The calls were made as follows: active = survival T/C of 150% or more; inactive = T/C below 125% in these data.

Tested on: CD2F1 mice, L1210 leukemia ip, survival T/C
Experiment: NCI In Vivo Anticancer Drug Screen. Data for tumor model L1210 Leukemia (intraperitoneal) in CD2F1 (CDF1) mice
Conditions: endpoint: mean survival time, higher = longer survival
How it was run: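 Tumor-bearing mice (transplanted tumor) were split into treated and vehicle control groups, and the measured endpoint of each treated group was divided by that of its vehicle controls.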

[1] = dose: 100.0 mg/kg/injection, schedule: Q01DX009 (ip), vehicle: saline with Tween-80
[2] = dose: 200.0 mg/kg/injection, schedule: Q01DX009 (ip), vehicle: saline with Tween-80
[3] = dose: 400.0 mg/kg/injection, schedule: Q01DX009 (ip), vehicle: saline with Tween-80
[4] = dose: 100.0 mg/kg/injection, schedule: Q01DX001 (ip), vehicle: saline
[5] = dose: 100.0 mg/kg/injection, schedule: Q04DX003 (ip), vehicle: saline with Tween-80
[6] = dose: 200.0 mg/kg/injection, schedule: Q04DX003 (ip), vehicle: saline with Tween-80
[7] = dose: 400.0 mg/kg/injection, schedule: Q04DX003 (ip), vehicle: saline with Tween-80

Measured: T/C

O=[N+]([O-])c1cc(Cl)ccc1NC(Nc1ccc(Cl)cc1[N+](=O)[O-])C(Cl)(Cl)Cl
inactive: [1] 101 % of control | [2] 106 % of control | [3] 101 % of control

CCOC12CC3C4=CCOC5CC(=O)N6c7ccccc7C1(CCN2C4)C6C53 (stereo not drawn)
inactive: dose: 5.0 mg/kg/injection, schedule: Q01DX001 (ip), vehicle: saline 98 % of control | dose: 10.0 mg/kg/injection, schedule: Q01DX001 (ip), vehicle: saline 101 % of control | dose: 20.0 mg/kg/injection, schedule: Q01DX001 (ip), vehicle: saline 95 % of control | dose: 40.0 mg/kg/injection, schedule: Q01DX001 (ip), vehicle: saline 97 % of control

CC(=O)C(C)(NCc1ccccc1)c1ccccc1 (stereo not drawn)
inactive: dose: 50.0 mg/kg/injection, schedule: Q01DX009 (ip), vehicle: Klucel (hydroxypropylcellulose) (HPC) 97 % of control | dose: 100.0 mg/kg/injection, schedule: Q01DX001 (ip), vehicle: other 100 % of control | [4] 101 % of control | dose: 100.0 mg/kg/injection, schedule: Q01DX009 (ip), vehicle: Klucel (hydroxypropylcellulose) (HPC) 100 % of control | dose: 200.0 mg/kg/injection, schedule: Q01DX001 (ip), vehicle: other 92 % of control | dose: 200.0 mg/kg/injection, schedule: Q01DX001 (ip), vehicle: saline 95 % of control | dose: 200.0 mg/kg/injection, schedule: Q01DX009 (ip), vehicle: Klucel (hydroxypropylcellulose) (HPC) 100 % of control | dose: 400.0 mg/kg/injection, schedule: Q01DX001 (ip), vehicle: other 107 % of control | dose: 400.0 mg/kg/injection, schedule: Q01DX001 (ip), vehicle: saline 93 % of control | dose: 400.0 mg/kg/injection, schedule: Q01DX009 (ip), vehicle: Klucel (hydroxypropylcellulose) (HPC) 106 % of control

C1COC2(CCC3(CC2)OCCO3)O1
inactive: [1] 102 % of control | dose: 100.0 mg/kg/injection, schedule: Q04DX003 (ip), vehicle: saline sonified 101 % of control | [2] 102 % of control | dose: 200.0 mg/kg/injection, schedule: Q04DX003 (ip), vehicle: saline sonified 101 % of control | [3] 103 % of control | dose: 400.0 mg/kg/injection, schedule: Q04DX003 (ip), vehicle: saline sonified 100 % of control

CN(C)CCc1ccc(O)cc1
inactive: dose: 25.0 mg/kg/injection, schedule: Q01DX001 (ip), vehicle: saline 103 % of control | dose: 50.0 mg/kg/injection, schedule: Q01DX001 (ip), vehicle: saline 105 % of control | [4] 98 % of control and 100 % of control | [1] 97 % of control | [5] 102 % of control | [2] 102 % of control | [6] 96 % of control | [3] 101 % of control | [7] 104 % of control

Nc1ccc(CCCCc2ccc(Cl)c(S(=O)(=O)F)c2)c(Cl)c1
inactive: [1] 95 % of control | [5] 95 % of control | [2] 92 % of control | [6] 101 % of control | [3] 94 % of control | [7] 94 % of control

Cc1cc(=O)[nH]c(=S)[nH]1.[Pd]
inactive: dose: 3.12 mg/kg/injection, schedule: Q04DX003 (ip), vehicle: saline 103 % of control | dose: 6.25 mg/kg/injection, schedule: Q04DX003 (ip), vehicle: saline 108 % of control | dose: 12.5 mg/kg/injection, schedule: Q04DX003 (ip), vehicle: saline 105 % of control | dose: 25.0 mg/kg/injection, schedule: Q04DX003 (ip), vehicle: saline 100 % of control | dose: 50.0 mg/kg/injection, schedule: Q04DX003 (ip), vehicle: saline 102 % of control | dose: 100.0 mg/kg/injection, schedule: Q04DX003 (ip), vehicle: saline 102 % of control | dose: 200.0 mg/kg/injection, schedule: Q04DX003 (ip), vehicle: saline 100 % of control

CC1CCC2N(C1)CC1C(C(O)C(O)C3(O)C1CC14OC5(O)C(O)CCC1(C)C5CC(O)C34)C2(C)O (stereo not drawn)
inactive: dose: 50.0 mg/kg/injection, schedule: Q01DX009 (ip), vehicle: saline with Tween-80 105 % of control | [1] 116 % of control | [2] 105 % of control
